Test system: Hela cell line
Test: MTT assay, oncolytic capability and cytotoxicity
Format: cell-based, human
Details: 4 days
Experimental: In this example, to confirm the adenoviral proliferation capability and oncolytic capability of Ad pDNA-polymer-peptide complexes, a complex was manufactured using polymer PAM-ABP and d pDNA containing viral DNA of H-Rd19-k35/DCN/shcMet, which is a tumor-selective oncolytic adenovirus expressing adenovirus DNA such as decorin (DCN) and shcMet. A human uterine cancer cell line, Hela cell line, was inoculated into a 12-well plate, and after 24 hours, treated with naked Ad pDNA, Ad pDNA/PAM-ABP, Ad pDNA/PAM-ABP/peptide complexes in which 6 types of peptides such as mVI, mVI-TAT, mVI-TAT-A, mVI-G-TAT-A, mVI-A-TAT and mVI-G-A-TAT were conjugated with Ad pDNA/PAM-ABP, and controls such as VI-9R and a complex with a TAT peptide. In addition, to verify cytotoxicity, the cells were treated with PAM-ABP or a peptide alone. Four days after the treatment, the culture solution was collected, and the number of adenovirus particles was detected using Q-PCR, and to verify oncolytic capability, 2 mg/ml of 3-(4,5-dimethylthiazol-2-yl)-2,5-diphenyl-tetrazolium bromide (MTT; Sigma Aldrich) in PBS was added at 200 μL to each well of the supernatant-removed plate, and cultured at 37° C. for 4 hours. Afterward, the supernatant was removed, the precipitate was dissolved in 1.0 ml dimethyl sulfoxide, the absorbance was analyzed by reading the plate at 540 nm on a microplate reader, and a non-treated cell group was classified as a negative control.

Row | SMILES | cytotoxicity of peptide alone
1 | CC[C@H](C)[C@H](NC(=O)CNC(=O)[C@H](CO)NC(=O)[C@H](Cc1c[nH]c2ccccc12)NC(=O)[C@H](CC(C)C)NC(=O)[C@H](CO)NC(=O)CNC(=O)[C@H](Cc1c[nH]c2ccccc12)NC(=O)[C@@H](N)CO)C(=O)N[C@@H](CCCCN)C(=O)N[C@@H](CC(N)=O)C(=O)N[C@@H](Cc1ccccc1)C(=O)NCC(=O)N[C@@H](CCCNC(=N)N)C(=O)N[C@@H](CCCNC(=N)N)C(=O)N[C@@H](CCCNC(=N)N)C(=O)N[C@@H](CCCNC(=N)N)C(=O)N[C@@H](CCCNC(=N)N)C(=O)N[C@@H](CCCNC(=N)N)C(=O)N[C@@H](CCCNC(=N)N)C(=O)N[C@@H](CCCNC(=N)N)C(=O)N[C@@H](CCCNC(=N)N)C(=O)O [VI-9R] | high cytotoxicity
2 | CC[C@H](C)[C@H](NC(=O)CNC(=O)[C@H](CO)NC(=O)[C@H](Cc1c[nH]c2ccccc12)NC(=O)[C@H](CC(C)C)NC(=O)[C@H](CO)NC(=O)CNC(=O)[C@H](Cc1c[nH]c2ccccc12)NC(=O)[C@H](CO)NC(=O)[C@H](Cc1ccccc1)NC(=O)[C@H](C)N)C(=O)N[C@@H](CCCCN)C(=O)N[C@@H](CC(N)=O)C(=O)N[C@@H](Cc1ccccc1)C(=O)NCC(=O)N[C@@H](C)C(=O)N[C@@H](CC(C)C)C(=O)N[C@@H](C)C(=O)N[C@@H](CCC(=O)O)C(=O)N[C@@H](CCCNC(=N)N)C(=O)N[C@@H](CCCCN)C(=O)N[C@@H](CCCCN)C(=O)N[C@@H](CCCNC(=N)N)C(=O)N[C@@H](CCCNC(=N)N)C(=O)N[C@@H](CCC(N)=O)C(=O)N[C@@H](CCCNC(=N)N)C(=O)N[C@@H](CCCNC(=N)N)C(=O)N[C@@H](CCCNC(=N)N)C(=O)O [mVI-A-TAT] | relatively high cytotoxicity
3 | CC[C@H](C)[C@H](NC(=O)CNC(=O)[C@H](CO)NC(=O)[C@H](Cc1c[nH]c2ccccc12)NC(=O)[C@H](CC(C)C)NC(=O)[C@H](CO)NC(=O)CNC(=O)[C@H](Cc1c[nH]c2ccccc12)NC(=O)[C@H](CO)NC(=O)[C@H](Cc1ccccc1)NC(=O)[C@H](C)N)C(=O)N[C@@H](CCCCN)C(=O)N[C@@H](CC(N)=O)C(=O)N[C@@H](Cc1ccccc1)C(=O)NCC(=O)N[C@@H](Cc1ccccc1)C(=O)N[C@@H](CC(C)C)C(=O)NCC(=O)N[C@@H](C)C(=O)N[C@@H](CC(C)C)C(=O)N[C@@H](C)C(=O)N[C@@H](CCC(=O)O)C(=O)N[C@@H](CCCNC(=N)N)C(=O)N[C@@H](CCCCN)C(=O)N[C@@H](CCCCN)C(=O)N[C@@H](CCCNC(=N)N)C(=O)N[C@@H](CCCNC(=N)N)C(=O)N[C@@H](CCC(N)=O)C(=O)N[C@@H](CCCNC(=N)N)C(=O)N[C@@H](CCCNC(=N)N)C(=O)N[C@@H](CCCNC(=N)N)C(=O)O [mVI-G-A-TAT] | relatively high cytotoxicity
4 | CC[C@H](C)[C@H](NC(=O)CNC(=O)[C@H](CO)NC(=O)[C@H](Cc1c[nH]c2ccccc12)NC(=O)[C@H](CC(C)C)NC(=O)[C@H](CO)NC(=O)CNC(=O)[C@H](Cc1c[nH]c2ccccc12)NC(=O)[C@H](CO)NC(=O)[C@H](Cc1ccccc1)NC(=O)[C@H](C)N)C(=O)N[C@@H](CCCCN)C(=O)N[C@@H](CC(N)=O)C(=O)N[C@@H](Cc1ccccc1)C(=O)NCC(=O)N[C@@H](Cc1ccccc1)C(=O)N[C@@H](CC(C)C)C(=O)NCC(=O)N[C@@H](CCCNC(=N)N)C(=O)N[C@@H](CCCCN)C(=O)N[C@@H](CCCCN)C(=O)N[C@@H](CCCNC(=N)N)C(=O)N[C@@H](CCCNC(=N)N)C(=O)N[C@@H](CCC(N)=O)C(=O)N[C@@H](CCCNC(=N)N)C(=O)N[C@@H](CCCNC(=N)N)C(=O)N[C@@H](CCCNC(=N)N)C(=O)N[C@@H](C)C(=O)N[C@@H](CC(C)C)C(=O)N[C@@H](C)C(=O)N[C@@H](CCC(=O)O)C(=O)O [mVI-G-TAT-A] | relatively high cytotoxicity
5 | CC[C@H](C)[C@H](NC(=O)CNC(=O)[C@H](CO)NC(=O)[C@H](Cc1c[nH]c2ccccc12)NC(=O)[C@H](CC(C)C)NC(=O)[C@H](CO)NC(=O)CNC(=O)[C@H](Cc1c[nH]c2ccccc12)NC(=O)[C@H](CO)NC(=O)[C@H](Cc1ccccc1)NC(=O)[C@H](C)N)C(=O)N[C@@H](CCCCN)C(=O)N[C@@H](CC(N)=O)C(=O)N[C@@H](Cc1ccccc1)C(=O)NCC(=O)O [mVI] | relatively high cytotoxicity

From US10722587B2, “Composition for intracellular delivery containing adenovirus protein VI-derived peptide and anticancer pharmaceutical composition containing same” (priority 2015, dated 2020)
